# Experiments:
# Adenosine receptor A2a = Adenosine receptor A2a (Homo sapiens, UniProt P29274)
# [1] = molecular target: T1, Alpha-2A adrenergic receptor (Homo sapiens, UniProt P08913); format: functional, cell-based
# T1 sequence (P08913 whole entry): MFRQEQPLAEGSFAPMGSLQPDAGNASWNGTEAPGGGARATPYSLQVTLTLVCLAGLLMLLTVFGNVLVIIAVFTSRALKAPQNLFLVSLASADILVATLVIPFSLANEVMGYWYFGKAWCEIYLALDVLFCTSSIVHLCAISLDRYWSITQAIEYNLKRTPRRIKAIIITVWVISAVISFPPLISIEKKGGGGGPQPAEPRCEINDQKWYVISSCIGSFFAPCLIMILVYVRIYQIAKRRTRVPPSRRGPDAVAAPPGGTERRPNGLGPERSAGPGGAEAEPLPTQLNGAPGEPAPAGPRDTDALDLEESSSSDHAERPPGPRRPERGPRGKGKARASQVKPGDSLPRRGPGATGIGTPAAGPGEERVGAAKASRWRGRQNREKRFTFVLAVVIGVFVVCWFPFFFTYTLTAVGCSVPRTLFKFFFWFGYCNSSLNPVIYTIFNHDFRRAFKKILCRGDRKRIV
# Vasopressin V2 receptor = Vasopressin V2 receptor (Homo sapiens, UniProt P30518)
# B2 bradykinin receptor = molecular target: T2, B2 bradykinin receptor (Homo sapiens, UniProt P30411)
# T2 sequence (P30411 whole entry): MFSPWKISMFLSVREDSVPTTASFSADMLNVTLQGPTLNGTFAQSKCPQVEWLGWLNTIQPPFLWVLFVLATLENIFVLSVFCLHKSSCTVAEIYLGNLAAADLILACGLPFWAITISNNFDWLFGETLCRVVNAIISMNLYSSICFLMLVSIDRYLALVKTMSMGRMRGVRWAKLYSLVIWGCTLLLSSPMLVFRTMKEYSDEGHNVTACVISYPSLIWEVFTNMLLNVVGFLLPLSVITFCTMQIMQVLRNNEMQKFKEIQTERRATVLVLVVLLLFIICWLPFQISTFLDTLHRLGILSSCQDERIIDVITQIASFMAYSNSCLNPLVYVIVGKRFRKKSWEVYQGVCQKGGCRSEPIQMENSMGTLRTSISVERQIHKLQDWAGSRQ
# [2] = molecular target: T3, Gastrin/cholecystokinin type B receptor (Homo sapiens, UniProt P32239)
# T3 sequence (P32239 whole entry): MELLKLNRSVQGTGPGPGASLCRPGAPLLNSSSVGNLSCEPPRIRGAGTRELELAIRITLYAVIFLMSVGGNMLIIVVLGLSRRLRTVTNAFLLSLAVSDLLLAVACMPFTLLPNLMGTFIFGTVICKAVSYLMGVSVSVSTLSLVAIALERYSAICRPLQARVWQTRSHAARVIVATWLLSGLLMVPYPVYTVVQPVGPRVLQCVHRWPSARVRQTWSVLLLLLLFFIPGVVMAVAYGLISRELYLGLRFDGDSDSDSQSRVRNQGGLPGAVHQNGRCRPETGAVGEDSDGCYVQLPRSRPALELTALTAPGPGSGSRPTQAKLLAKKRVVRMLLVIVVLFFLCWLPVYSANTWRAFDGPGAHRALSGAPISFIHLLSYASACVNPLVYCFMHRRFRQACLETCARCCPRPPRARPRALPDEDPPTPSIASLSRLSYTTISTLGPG
# [3] = molecular target: Gamma-aminobutyric acid receptor subunit alpha-1 (Rattus norvegicus, UniProt P62813); format: functional
# [4] = molecular target: 5-hydroxytryptamine receptor 2B (Homo sapiens, UniProt P41595); format: functional, cell-based
# Motilin receptor = Motilin receptor (Homo sapiens, UniProt O43193)
# [5] = molecular target: Kappa-type opioid receptor (Homo sapiens, UniProt P41145)
# D(3) dopamine receptor = D(3) dopamine receptor (Homo sapiens, UniProt P35462)
# Estrogen receptor = molecular target: T4, Estrogen receptor (Homo sapiens, UniProt P03372)
# T4 sequence (P03372 whole entry): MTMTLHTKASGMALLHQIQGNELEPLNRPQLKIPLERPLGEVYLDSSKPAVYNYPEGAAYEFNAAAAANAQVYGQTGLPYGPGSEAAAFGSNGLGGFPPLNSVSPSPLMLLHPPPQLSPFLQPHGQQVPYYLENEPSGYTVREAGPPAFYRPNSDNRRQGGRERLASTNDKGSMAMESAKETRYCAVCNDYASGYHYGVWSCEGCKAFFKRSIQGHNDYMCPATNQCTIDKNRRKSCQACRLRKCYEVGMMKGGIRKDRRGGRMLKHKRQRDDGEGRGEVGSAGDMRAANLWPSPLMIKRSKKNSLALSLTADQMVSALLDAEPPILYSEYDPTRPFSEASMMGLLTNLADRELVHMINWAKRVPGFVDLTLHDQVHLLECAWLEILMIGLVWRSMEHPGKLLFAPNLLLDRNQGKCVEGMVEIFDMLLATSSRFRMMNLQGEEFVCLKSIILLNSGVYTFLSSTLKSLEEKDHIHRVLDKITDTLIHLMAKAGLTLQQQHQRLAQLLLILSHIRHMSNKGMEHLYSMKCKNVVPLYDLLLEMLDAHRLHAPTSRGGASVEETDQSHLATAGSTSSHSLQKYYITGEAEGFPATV
# Mu-type opioid receptor = Mu-type opioid receptor (Homo sapiens, UniProt P35372)
# Cannabinoid receptor 1 = Cannabinoid receptor 1 (Homo sapiens, UniProt P21554); format: functional, cell-based
# [6] = molecular target: T5, Alpha-2B adrenergic receptor (Homo sapiens, UniProt P18089)
# T5 sequence (P18089 whole entry): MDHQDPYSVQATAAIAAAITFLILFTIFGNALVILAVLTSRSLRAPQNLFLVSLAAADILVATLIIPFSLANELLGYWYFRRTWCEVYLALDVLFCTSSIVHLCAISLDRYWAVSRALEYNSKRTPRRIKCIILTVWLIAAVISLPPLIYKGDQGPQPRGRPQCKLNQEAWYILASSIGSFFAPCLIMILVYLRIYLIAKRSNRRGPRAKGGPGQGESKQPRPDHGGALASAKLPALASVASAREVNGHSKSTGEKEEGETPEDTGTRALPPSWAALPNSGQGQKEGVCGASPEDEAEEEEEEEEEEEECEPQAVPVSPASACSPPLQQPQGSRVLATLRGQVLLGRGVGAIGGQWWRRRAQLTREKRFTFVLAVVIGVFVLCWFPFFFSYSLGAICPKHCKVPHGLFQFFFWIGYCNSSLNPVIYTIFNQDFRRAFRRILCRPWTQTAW
# Further: assay procedure not described here.
# Chain of Kappa-type opioid receptor (P41145 whole entry): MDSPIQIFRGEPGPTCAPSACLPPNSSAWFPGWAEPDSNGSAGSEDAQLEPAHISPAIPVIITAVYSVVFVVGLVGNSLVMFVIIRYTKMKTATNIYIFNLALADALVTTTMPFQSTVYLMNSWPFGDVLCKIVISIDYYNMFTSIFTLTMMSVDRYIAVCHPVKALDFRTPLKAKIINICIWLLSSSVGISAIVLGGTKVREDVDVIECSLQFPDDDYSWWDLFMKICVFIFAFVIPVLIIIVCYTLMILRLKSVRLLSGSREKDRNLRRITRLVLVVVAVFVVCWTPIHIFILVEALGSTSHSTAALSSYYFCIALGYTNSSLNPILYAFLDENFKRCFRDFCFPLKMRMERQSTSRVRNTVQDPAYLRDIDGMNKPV
# Chain of 5-hydroxytryptamine receptor 2B (P41595 whole entry): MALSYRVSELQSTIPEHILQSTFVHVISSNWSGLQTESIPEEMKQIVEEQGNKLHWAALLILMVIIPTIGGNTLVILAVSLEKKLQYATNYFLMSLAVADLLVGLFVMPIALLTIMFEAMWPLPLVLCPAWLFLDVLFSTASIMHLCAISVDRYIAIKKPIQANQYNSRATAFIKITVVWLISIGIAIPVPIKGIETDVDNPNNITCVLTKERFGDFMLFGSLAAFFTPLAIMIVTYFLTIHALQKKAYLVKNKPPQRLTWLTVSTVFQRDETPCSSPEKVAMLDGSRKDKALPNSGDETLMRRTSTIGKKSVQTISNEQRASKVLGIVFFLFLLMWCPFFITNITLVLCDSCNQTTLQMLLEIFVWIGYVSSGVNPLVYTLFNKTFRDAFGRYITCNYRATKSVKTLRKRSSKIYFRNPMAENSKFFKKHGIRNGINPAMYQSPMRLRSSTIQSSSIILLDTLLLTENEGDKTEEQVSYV
# Chain of Motilin receptor (O43193 whole entry): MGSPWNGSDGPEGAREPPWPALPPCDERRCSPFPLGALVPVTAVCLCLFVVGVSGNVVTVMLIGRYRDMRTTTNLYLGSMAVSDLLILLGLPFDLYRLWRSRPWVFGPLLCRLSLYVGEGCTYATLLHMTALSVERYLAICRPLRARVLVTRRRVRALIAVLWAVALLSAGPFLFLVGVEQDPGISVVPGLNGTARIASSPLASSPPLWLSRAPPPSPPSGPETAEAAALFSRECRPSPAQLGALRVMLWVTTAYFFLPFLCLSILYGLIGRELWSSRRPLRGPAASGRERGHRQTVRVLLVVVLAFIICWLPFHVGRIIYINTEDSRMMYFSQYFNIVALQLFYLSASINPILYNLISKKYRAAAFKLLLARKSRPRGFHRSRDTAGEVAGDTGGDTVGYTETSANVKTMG
# Chain of D(3) dopamine receptor (P35462 whole entry): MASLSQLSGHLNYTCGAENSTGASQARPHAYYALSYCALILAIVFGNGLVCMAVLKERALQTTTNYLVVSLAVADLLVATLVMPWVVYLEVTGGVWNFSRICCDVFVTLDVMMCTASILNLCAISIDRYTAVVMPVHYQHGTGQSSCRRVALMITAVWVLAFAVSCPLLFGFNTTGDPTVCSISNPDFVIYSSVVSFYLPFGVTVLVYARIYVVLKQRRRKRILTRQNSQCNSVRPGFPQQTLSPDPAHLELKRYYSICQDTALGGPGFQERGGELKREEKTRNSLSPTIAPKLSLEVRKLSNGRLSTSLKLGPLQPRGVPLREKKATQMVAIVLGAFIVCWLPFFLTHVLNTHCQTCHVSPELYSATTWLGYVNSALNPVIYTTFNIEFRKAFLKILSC
# Chain of Gamma-aminobutyric acid receptor subunit alpha-1 (P62813 whole entry): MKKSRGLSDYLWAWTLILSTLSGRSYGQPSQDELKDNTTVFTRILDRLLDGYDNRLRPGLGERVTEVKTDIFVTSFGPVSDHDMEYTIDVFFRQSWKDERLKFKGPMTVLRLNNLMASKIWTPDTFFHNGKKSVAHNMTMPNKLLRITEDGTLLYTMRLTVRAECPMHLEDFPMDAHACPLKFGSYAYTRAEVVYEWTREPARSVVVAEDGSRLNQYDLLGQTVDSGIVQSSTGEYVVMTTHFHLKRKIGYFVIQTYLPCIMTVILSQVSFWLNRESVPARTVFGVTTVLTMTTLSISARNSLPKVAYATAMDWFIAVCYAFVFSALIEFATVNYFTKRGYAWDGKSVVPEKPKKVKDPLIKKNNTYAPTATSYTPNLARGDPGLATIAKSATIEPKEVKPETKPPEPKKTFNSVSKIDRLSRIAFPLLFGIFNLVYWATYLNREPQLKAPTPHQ
# Chain of Cannabinoid receptor 1 (P21554 whole entry): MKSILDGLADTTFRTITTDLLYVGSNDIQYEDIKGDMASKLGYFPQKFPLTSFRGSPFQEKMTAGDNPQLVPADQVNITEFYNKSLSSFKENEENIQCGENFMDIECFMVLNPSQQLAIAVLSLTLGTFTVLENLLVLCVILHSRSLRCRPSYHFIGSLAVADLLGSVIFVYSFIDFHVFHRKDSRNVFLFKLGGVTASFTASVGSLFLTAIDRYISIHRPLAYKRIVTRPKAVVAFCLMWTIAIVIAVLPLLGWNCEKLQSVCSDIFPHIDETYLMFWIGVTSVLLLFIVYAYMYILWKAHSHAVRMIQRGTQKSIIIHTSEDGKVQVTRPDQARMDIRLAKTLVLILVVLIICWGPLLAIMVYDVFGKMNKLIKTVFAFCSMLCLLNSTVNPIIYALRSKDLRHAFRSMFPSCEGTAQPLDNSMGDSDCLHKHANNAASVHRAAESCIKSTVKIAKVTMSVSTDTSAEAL
# Chain of Adenosine receptor A2a (P29274 whole entry): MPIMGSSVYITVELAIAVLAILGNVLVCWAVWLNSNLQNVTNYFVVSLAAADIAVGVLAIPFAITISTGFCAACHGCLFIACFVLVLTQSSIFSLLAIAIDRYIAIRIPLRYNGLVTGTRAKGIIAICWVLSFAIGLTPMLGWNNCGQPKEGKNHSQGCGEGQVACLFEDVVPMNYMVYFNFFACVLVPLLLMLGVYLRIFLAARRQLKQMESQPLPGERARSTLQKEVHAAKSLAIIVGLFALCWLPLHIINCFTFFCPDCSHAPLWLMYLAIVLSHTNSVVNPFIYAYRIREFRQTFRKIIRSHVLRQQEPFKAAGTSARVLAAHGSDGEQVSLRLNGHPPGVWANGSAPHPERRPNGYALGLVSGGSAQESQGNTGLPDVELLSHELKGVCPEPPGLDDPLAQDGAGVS
# Chain of Mu-type opioid receptor (P35372 whole entry): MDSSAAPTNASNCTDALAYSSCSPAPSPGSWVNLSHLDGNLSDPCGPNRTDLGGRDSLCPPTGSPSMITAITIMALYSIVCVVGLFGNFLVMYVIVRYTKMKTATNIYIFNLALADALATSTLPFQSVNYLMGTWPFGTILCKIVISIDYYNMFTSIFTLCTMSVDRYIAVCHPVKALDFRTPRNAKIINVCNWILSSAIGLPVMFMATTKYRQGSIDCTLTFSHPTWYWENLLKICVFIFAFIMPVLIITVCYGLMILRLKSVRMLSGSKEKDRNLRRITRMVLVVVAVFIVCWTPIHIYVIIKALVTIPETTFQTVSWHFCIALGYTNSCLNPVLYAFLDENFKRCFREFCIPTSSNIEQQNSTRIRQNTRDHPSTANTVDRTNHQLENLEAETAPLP
Compound,AC50 (Adenosine receptor A2a) [µM],AC50 [1] [µM],AC50 (Vasopressin V2 receptor) [µM],AC50 (B2 bradykinin receptor) [µM],AC50 [2] [µM],AC50 [3] [µM],AC50 [4] [µM],AC50 (Motilin receptor) [µM],AC50 [5] [µM],AC50 (D(3) dopamine receptor) [µM],AC50 (Estrogen receptor) [µM],AC50 (Mu-type opioid receptor) [µM],AC50 (Cannabinoid receptor 1) [µM],AC50 [6] [µM]
CCc1ccc(C(=O)C(C)CN2CCCCC2)cc1 (stereo not drawn) [EPERISONE],> 30,> 30,> 30,> 30,> 30,> 30,> 30,> 30,> 30,9.4,,,,
CCC1(C)CC(=O)NC1=O (stereo not drawn) [ETHOSUXIMIDE],> 10,> 10,> 10,> 10,,> 10,> 10,> 10,> 10,> 30,> 10,> 30,,
CC(=O)OCC(=O)[C@@]1(O)CC[C@H]2[C@@H]3CCC4=CC(=O)CC[C@]4(C)[C@@]3(F)[C@@H](O)C[C@@]21C [FLUDROCORTISONE ACETATE],> 30,> 30,> 30,> 30,> 30,> 30,> 30,> 30,> 30,> 30,> 30,,> 30,
CC(=O)[C@@]1(O)CC[C@H]2[C@@H]3C[C@H](C)C4=CC(=O)C=C[C@]4(C)[C@@]3(F)[C@@H](O)C[C@@]21C [FLUOROMETHOLONE],> 10,> 10,> 10,> 10,,> 10,> 10,> 10,> 10,> 30,> 30,> 30,> 30,
N=C(N)NC(=O)Cc1c(Cl)cccc1Cl [GUANFACINE],> 30,,> 30,> 30,> 30,> 30,,> 10,5.95,20,,> 30,> 30,
CCN(CC)CC(=O)Nc1c(C)cccc1C [LIDOCAINE],> 30,,> 30,> 30,> 30,,,> 10,,,,,,
COc1nc(C)nc(Cl)c1N=C1NCCN1 [MOXONIDINE],> 30,,> 30,> 30,> 30,> 30,> 30,> 30,> 30,> 30,,,> 30,
Nc1ccc(S(=O)(=O)Nc2ncccn2)cc1 [SULFADIAZINE],> 10,> 10,> 10,> 10,,> 10,> 10,> 10,> 10,> 30,,> 30,,
SITOSTEROLS,> 30,> 30,> 30,> 30,> 10,> 30,> 30,> 30,> 30,> 30,> 30,,> 30,> 30

# — ChEMBL document CHEMBL5291721, “A preclinical secondary pharmacology resource illuminates target-adverse drug reaction associations of marketed drugs” (Nat Commun, 2023)
